Results: patent US20240269304A1, “BCL-XL INHIBITOR ANTIBODY-DRUG CONJUGATES AND METHODS OF USE THEREOF” (Novartis AG, priority 2020, published 2024)
Read-outs that look alike come from different tables or passages of the source.

Legend:
[1] = system: NCI-H1650; assay: CellTiter Glo 3D spheroid proliferation/survival, 5 days, NCI-H1650, 0.0005-500 nM (Example 10); type: cell-based, human; details: spheroids; for IC50 / NCI-H1650 IC50 (nM): 0.0005-500 nM
Description: One target was assessed: EGFR.
The ability of the BCL-xL antibody drug conjugates to inhibit cell proliferation and survival was assessed using the Promega CellTiter-Glo® proliferation assay.
Cell lines were cultured in media that is optimal for their growth at 5% CO2, 37° C. in a tissue culture incubator. Prior to seeding for the proliferation assay, the cells were split at least 2 days before the assay to ensure optimal growth density. […] Cell viability and cell density were determined using a cell counter (Vi-Cell XR Cell Viability Analyzer, Beckman Coulter).
Cells were seeded at a density of 3,000 cells per well in 45 uL of standard growth media. Plates were spun in a centrifuge for 5 minutes and 1,000 RPM. Plates were incubated at 5% CO2, 37° C. for 72 hours in a tissue culture incubator. On the day of dosing, EGFR targeting BCL-xL ADCs were prepared at 1OX in standard growth media. The prepared drug treatments were then added to the cells resulting in final concentrations of 0.0005-500 nM and a final volume of 50 μL per well. Each drug concentration was tested in quadruplets. Plates were incubated at 5% CO2, 37° C. for 5 days in a tissue culture incubator.
Cell viability was assessed through the addition of 40 μL of CellTiter Glo 3D Cell Viability Assay substrate (Promega, cat #G9681), a reagent which lyses cells and measures total adenosine triphosphate (ATP) content. Wells were mixed thoroughly and plates were incubated at room temperature for 30 minutes to stabilize luminescent signals prior to reading using a luminescence reader (EnVision Multilabel Plate Reader, PerkinElmer).
To evaluate the effect of the drug treatments, luminescent counts from wells containing untreated cells (100% viability) were used to normalize treated samples. […] IC50 and Amax values were extrapolated from the resultant curves.

[2] = system: H1650 cells; assay: CellTiterGlo (CTG) cell viability, 3D, 120 h, H1650 (Example 8); type: cell-based, human; details: Homo sapiens, NCI-H1650, H1650 3D
[3] = system: HCC1569 cells; assay: CellTiterGlo (CTG) cell viability, 120 h, HCC1569, single agent or with 10 nM Paclitaxel; type: cell-based; details: Homo sapiens
Description: HCC1569 cells were cultivated in RPMI supplemented with 10% heat inactivated fetal bovine serum, penicillin (100 IU/ml), streptomycin (100 μg/ml) and L-glutamine (2 mM). Cell lines were cultured at 37° C. in a humidified atmosphere containing 5% 002. […] Effects of ADCs on cell viability were assessed after 5 days of incubation at 37° C./5% CO2 by quantification of cellular ATP levels using CellTiterGlo at 75 μL reagent/well. All the conditions were tested in triplicates. Luminescence was quantified on a multipurpose plate reader. IC50s were calculated using standard four-parametric curve fitting.

Structure (SMILES) | IC50 [1] [nM] | other results
COCCOCCOCCOCCOCCOCCOCCOCCn1cc(COC(=O)N(Cc2cn(CCOCCOCCOCCOCCOCCOCCOCCOC)nn2)Cc2cc(NC(=O)[C@H](CCCNC(N)=O)NC(=O)[C@@H](NC(=O)CCOCCN3C(=O)CC(C)C3=O)C(C)C)ccc2C[N+](C)(C)CC#Cc2ccc(OCCCc3sc(N4CCCc5c4nnc(Nc4nc6ccccc6s4)c5C)nc3C(=O)O)c(F)c2)nn1 (mixture of isomers) [EGFR1-L1A-P1] | < 0.686 | 
COCCOCCOCCOCCOCCOCCOCCOCCn1cc(COC(=O)N(Cc2cn(CCOCCOCCOCCOCCOCCOCCOCCOC)nn2)Cc2cc(NC(=O)[C@H](CCCNC(N)=O)NC(=O)[C@@H](NC(=O)CCOCCN3C(=O)CC(C)C3=O)C(C)C)ccc2C[N+](C)(C)CC#Cc2ccc(OCCCc3sc(N(C)c4cc(C)c(Nc5nc6ccccc6s5)nn4)nc3C(=O)O)c(F)c2)nn1 (mixture of isomers) [EGFR1-L1A-P2] | < 6.17 | 
Cc1c(Nc2nc3ccccc3s2)nnc2c1CCCN2c1nc(C(=O)O)c(CCCOc2ccc(C#CC[N+](C)(C)Cc3ccc(NC(=O)[C@H](CCCNC(N)=O)NC(=O)[C@@H](NC(=O)CCOCCN4C(=O)CC(C)C4=O)C(C)C)cc3CN(C)C(=O)OCc3cn(CCOCCOCCOCCOCCOCCOCCOCCOCCC(=O)O)nn3)cc2F)s1 (mixture of isomers) [EGFR1-L3A-P1] | < 0.686 | NCI-H1650 Amax (Span) [1]: >100
Cc1c(Nc2nc3ccccc3s2)nnc2c1CCCN2c1nc(C(=O)O)c(CCCOc2ccc(C#CCN(C)C(=O)COc3ccc(NC(=O)[C@H](CCCNC(N)=O)NC(=O)[C@@H](NC(=O)CCOCCN4C(=O)CC(C)C4=O)C(C)C)cc3CN(C)C(=O)OCc3cn(CCOCCOCCOCCOCCOCCOCCOCCOCCC(=O)O)nn3)cc2F)s1 (mixture of isomers) [EGFR1-L3C-P3] |  | NCI-H1650 Amax (Span) [1]: 100.6
Cc1cc(N(CCCC(O)C[N+](C)(C)C)c2nc(C(=O)O)c(CCCOc3ccc(C#CCN(C)C(=O)OCc4ccc(NC(=O)[C@H](CCCNC(N)=O)NC(=O)[C@@H](NC(=O)CCOCCN5C(=O)CC(C)C5=O)C(C)C)cc4CN(C)C(=O)OCc4cn(CCOCCOCCOCCOCCOCCOCCOCCOCCC(=O)O)nn4)cc3F)s2)nnc1Nc1nc2ccccc2s1 (mixture of isomers) [EGFR1-L3C-P5] | > 500 | 
COCCOCCOCCOCCOCCOCCOCCOCCn1cc(COC(=O)N(C)Cc2cc(NC(=O)[C@H](CCCNC(N)=O)NC(=O)[C@@H](NC(=O)CCOCCN3C(=O)CC(C)C3=O)C(C)C)ccc2C[N+](C)(C)CC#Cc2ccc(OCCCc3sc(N4CCCc5c4nnc(Nc4nc6ccccc6s4)c5C)nc3C(=O)O)c(F)c2)nn1 (mixture of isomers) [EGFR1-L4A-P1] | < 0.686 | 
Cc1c(Nc2nc3ccccc3s2)nnc2c1CCCN2c1nc(C(=O)O)c(CCCOc2ccc(C#CC[N+](C)(C)Cc3ccc(NC(=O)[C@H](CCCNC(N)=O)NC(=O)[C@@H](NC(=O)CCOCCN4C(=O)CC(C)C4=O)C(C)C)cc3COCc3cn(CCOCCOCCOCCOCCOCCOCCOCCOCCC(=O)O)nn3)cc2F)s1 (mixture of isomers) [EGFR1-L7A-P1] | < 0.686 | 
Cc1c(Nc2nc3ccccc3s2)nnc2c1CCCN2c1nc(C(=O)O)c(CCCOc2ccc(C#CCN(C)C(=O)OCc3ccc(NC(=O)[C@H](CCCNC(N)=O)NC(=O)[C@@H](NC(=O)CCOCCN4C(=O)CC(C)C4=O)C(C)C)cc3COCc3cn(CCOCCOCCOCCOCCOCCOCCOCCOCCC(=O)O)nn3)cc2F)s1 (mixture of isomers) [EGFR1-L7C-P3] | < 6.17 | 
Cc1cc(N(CCCN(C)C)c2nc(C(=O)O)c(CCCOc3ccc(C#CCN(C)C(=O)OCc4ccc(NC(=O)[C@H](CCCNC(N)=O)NC(=O)[C@@H](NC(=O)CCOCCN5C(=O)CC(C)C5=O)C(C)C)cc4COCc4cn(CCOCCOCCOCCOCCOCCOCCOCCOCCC(=O)O)nn4)cc3F)s2)nnc1Nc1nc2ccccc2s1 (mixture of isomers) [EGFR1-L7C-P6] | > 500 | 
Cc1cc(N(C)c2nc(C(=O)O)c(CCCOc3ccc(C#CCN(C)C(=O)OCc4ccc(NC(=O)[C@H](CCCNC(N)=O)NC(=O)[C@@H](NC(=O)CCOCCN5C(=O)CC(C)C5=O)C(C)C)cc4COCc4cn(CCOCCOCCOCCOCCOCCOCCOCCOCCC(=O)O)nn4)cc3F)s2)nnc1Nc1nc2ccccc2s1 (mixture of isomers) [EGFR1-L7C-P7] | < 55.6 | 
COCOCCOCCOCCOCCOCCOCCOCCn1cc(COCc2cc(NC(=O)[C@@H](CCCNC(N)=O)NC(=O)[C@H](NC(=O)CCOCCN3C(=O)CC(C)C3=O)C(C)C)ccc2C[N+](C)(C)CC#Cc2ccc(OCCCc3sc(N4CCCc5c4nnc(Nc4nc6ccccc6s4)c5C)nc3C(=O)O)c(F)c2)nn1 (mixture of isomers) [EGFR1-L8A-P1] | < 2.06 | 
Cc1cc(N(CCCC(O)C[N+](C)(C)CCS(=O)(=O)O)c2nc(C(=O)O)c(CCCOc3ccc(C#CCN(C)C(=O)OCc4ccc(NC(=O)[C@H](CCCNC(N)=O)NC(=O)[C@@H](NC(=O)CCOCCN5C(=O)CC(C)C5=O)C(C)C)cc4)cc3F)s2)nnc1Nc1nc2ccccc2s1 (mixture of isomers) [EGFR1-L9C-P4] | > 500 | 
Cc1cc(N(CCCC(O)C[N+](C)(C)C)c2nc(C(=O)O)c(CCCOc3ccc(C#CCN(C)C(=O)OCc4ccc(NC(=O)[C@H](CCCNC(N)=O)NC(=O)[C@@H](NC(=O)CCOCCN5C(=O)CC(C)C5=O)C(C)C)cc4)cc3F)s2)nnc1Nc1nc2ccccc2s1 (mixture of isomers) [EGFR1-L9C-P5] | > 500 | 
Cc1cc(N(C)c2nc(C(=O)O)c(CCCOc3ccc(C#CC[N+](C)(C)Cc4ccc(NC(=O)[C@H](CCCNC(N)=O)NC(=O)[C@@H](NC(=O)CCOCCN5C(=O)CC(C)C5=O)C(C)C)cc4CN(Cc4cn(CCOCCOCCOCCOCCOCCOCCOCCOCCC(=O)O)nn4)C(=O)OCc4cn(CCOCCOCCOCCOCCOCCOCCOCCOCCC(=O)O)nn4)cc3F)s2)nnc1Nc1nc2ccccc2s1 (mixture of isomers) [EGFR1-L10A-P2] | < 6.17 | 
Cc1c(Cc2nc3ccccc3s2)nnc2c1CCCN2c1nc(C(=O)O)c(CCCOc2ccc(C#CCN(C)C(=O)OCc3ccc(NC(=O)[C@H](CCCNC(N)=O)NC(=O)[C@@H](NC(=O)CCOCCN4C(=O)CC(C)C4=O)C(C)C)cc3CN(Cc3cn(CCOCCOCCOCCOCCOCCOCCOCCOCCC(=O)O)nn3)C(=O)OCc3cn(CCOCCOCCOCCOCCOCCOCCOCCOCCC(=O)O)nn3)cc2F)s1 (mixture of isomers) [EGFR1-L10C-P3] | < 18.5 | 
Cc1cc(N(CCCC(O)C[N+](C)(C)CCCS(=O)(=O)O)c2nc(C(=O)O)c(CCCOc3ccc(C#CCN(C)C(=O)OCc4ccccc4CN(C)C(=O)OCc4cn(CCOCCOCCOCCOCOCCOCCOCCOCCCC(=O)O)nn4)cc3F)s2)nnc1Nc1nc2ccccc2s1 (stereo not shown) [EGFR1-L3C-P4] | > 500 | 
Cc1c(Nc2nc3ccccc3s2)nnc2c1CCCN2c1ccc(-c2cnn(CC34CC5(C)CC(C)(C3)CC(OCCN(CC[C@H](O)CO)C(=O)OCc3ccc(NC(=O)[C@H](CCCNC(N)=O)NC(=O)[C@@H](NC(=O)CCOCCN6C(=O)C=CC6=O)C(C)C)cc3CN(C)C(=O)CCOCCOCCOCCOCCOCCOCCOCCOCCOCCOCCOCCOCCOCCOCCOCCOCCOCCOCCOCCOCCOCCOCCOCCOCCOCCC(=O)O)(C5)C4)c2C)c(C(=O)O)n1 [L11C-P19] |  | NCI-H1650 IC50 (nM) [1]: among the most potent
Cc1c(Nc2nc3ccccc3s2)nnc2c1CCCN2c1ccc(-c2cnn(CC34CC5(C)CC(C)(C3)CC(OCCN(CCCO)C(=O)OCc3ccc(NC(=O)[C@H](CCCNC(N)=O)NC(=O)[C@@H](NC(=O)CCOCCN6C(=O)C=CC6=O)C(C)C)cc3CN(C)C(=O)CCOCCOCCOCCOCCOCCOCCOCCOCCOCCOCCOCCOCCOCCOCCOCCOCCOCCOCCOCCOCCOCCOCCOCCOCCOCCC(=O)O)(C5)C4)c2C)c(C(=O)O)n1 [L11C-P25] |  | NCI-H1650 IC50 (nM) [1]: among the most potent
Cc1cc(N(C)c2nc(C(=O)O)c(CCCOc3ccc(C#CCN(C)C)cc3F)s2)nnc1Nc1nc2ccccc2s1 [P2, 2-[[6-(1,3-benzothiazol-2-ylamino)-5-methyl-pyridazin-3-yl]-methyl-amino]-5-[3-[4-[3-(dimethylamino)prop-1-ynyl]-2-fluoro-phenoxy]propyl]thiazole-4-carboxylic acid] |  | IC50 ([2]; experiment n1, read-out: H1650 3D CTG IC50 n1): 1.06 nM; IC50 ([2]; experiment n2, read-out: H1650 3D CTG IC50 n2): 1.9 nM; IC50 ([2]; mean of n1 and n2, read-out: H1650 3D CTG IC50 Mean of n1 and n2): 1.48 nM; IC50 ([3]; HCC1569, read-out: HCC1569 CTG 120 h IC50 nM + Paclitaxel 10 nM Mean N1 and N2, in the presence of 10 nM Paclitaxel, mean): 0.111 nM; IC50 ([3]; HCC1569, read-out: HCC1569 CTG 120 h IC50 nM + Paclitaxel 10 nM N1, in the presence of 10 nM Paclitaxel, N1): 0.126 nM; IC50 ([3]; HCC1569, read-out: HCC1569 CTG 120 h IC50 nM + Paclitaxel 10 nM N2, in the presence of 10 nM Paclitaxel, N2): 0.096 nM; IC50 ([3]; HCC1569, read-out: HCC1569 CTG 120 h IC50 nM Mean N1 and N2, single agent, mean): 12.4 nM; IC50 ([3]; HCC1569, read-out: HCC1569 CTG 120 h IC50 nM N1, single agent, N1): 13.1 nM; IC50 ([3]; HCC1569, read-out: HCC1569 CTG 120 h IC50 nM N2, single agent, N2): 11.7 nM
